Key:
[1] = target: T1, Tyrosine-protein kinase JAK3 (Homo sapiens, UniProt P52333); assay: Inhibition of recombinant human GST-tagged JAK3 catalytic domain expressed in baculovirus expression system by Z'-LYTE assay
T1 sequence (P52333 whole entry): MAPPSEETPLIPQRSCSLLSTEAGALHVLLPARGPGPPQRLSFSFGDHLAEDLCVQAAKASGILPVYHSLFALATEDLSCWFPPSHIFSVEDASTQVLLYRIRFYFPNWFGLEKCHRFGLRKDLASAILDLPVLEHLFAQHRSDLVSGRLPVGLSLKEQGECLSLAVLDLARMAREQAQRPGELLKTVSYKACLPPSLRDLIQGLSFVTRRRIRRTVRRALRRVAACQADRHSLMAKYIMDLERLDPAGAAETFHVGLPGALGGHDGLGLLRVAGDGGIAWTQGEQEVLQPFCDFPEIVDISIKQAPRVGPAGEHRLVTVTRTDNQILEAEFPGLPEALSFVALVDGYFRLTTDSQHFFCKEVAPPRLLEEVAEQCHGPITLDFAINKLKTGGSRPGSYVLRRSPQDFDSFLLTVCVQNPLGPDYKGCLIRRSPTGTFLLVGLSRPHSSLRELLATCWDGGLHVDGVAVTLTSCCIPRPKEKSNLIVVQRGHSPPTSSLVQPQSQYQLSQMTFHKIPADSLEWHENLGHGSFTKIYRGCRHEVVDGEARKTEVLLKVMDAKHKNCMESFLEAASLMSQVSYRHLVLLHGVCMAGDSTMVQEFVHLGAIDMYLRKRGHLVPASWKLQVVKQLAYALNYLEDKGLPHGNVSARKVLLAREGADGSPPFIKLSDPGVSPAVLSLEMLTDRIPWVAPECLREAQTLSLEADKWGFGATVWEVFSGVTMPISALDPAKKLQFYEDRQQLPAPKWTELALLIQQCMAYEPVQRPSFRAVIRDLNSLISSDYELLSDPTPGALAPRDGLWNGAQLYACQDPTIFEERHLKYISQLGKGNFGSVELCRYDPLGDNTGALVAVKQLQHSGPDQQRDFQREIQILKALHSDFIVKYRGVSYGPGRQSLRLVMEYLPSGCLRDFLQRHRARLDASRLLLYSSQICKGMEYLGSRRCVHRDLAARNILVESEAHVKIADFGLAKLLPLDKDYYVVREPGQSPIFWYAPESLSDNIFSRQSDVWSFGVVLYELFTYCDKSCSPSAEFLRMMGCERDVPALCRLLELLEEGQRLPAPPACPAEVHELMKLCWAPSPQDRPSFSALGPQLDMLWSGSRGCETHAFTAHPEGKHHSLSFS

[2] = target: Dual specificity tyrosine-phosphorylation-regulated kinase 1A (Homo sapiens, UniProt Q13627); assay: Inhibition of full-length recombinant human GST-tagged DYRK1A expressed in baculovirus expression system by Z'-LYTE assay
[3] = target: Rho-associated protein kinase 1 (Homo sapiens, UniProt Q13464); assay: Inhibition of recombinant human GST-tagged ROCK1 catalytic domain expressed in baculovirus expression system by Z'-LYTE assay
[4] = target: T2, Beta-adrenergic receptor kinase 1 (Homo sapiens, UniProt P25098); assay: Inhibition of full-length recombinant human His-tagged ADRBK1 expressed in baculovirus expression system by Z'-LYTE assay
T2 sequence (P25098 whole entry): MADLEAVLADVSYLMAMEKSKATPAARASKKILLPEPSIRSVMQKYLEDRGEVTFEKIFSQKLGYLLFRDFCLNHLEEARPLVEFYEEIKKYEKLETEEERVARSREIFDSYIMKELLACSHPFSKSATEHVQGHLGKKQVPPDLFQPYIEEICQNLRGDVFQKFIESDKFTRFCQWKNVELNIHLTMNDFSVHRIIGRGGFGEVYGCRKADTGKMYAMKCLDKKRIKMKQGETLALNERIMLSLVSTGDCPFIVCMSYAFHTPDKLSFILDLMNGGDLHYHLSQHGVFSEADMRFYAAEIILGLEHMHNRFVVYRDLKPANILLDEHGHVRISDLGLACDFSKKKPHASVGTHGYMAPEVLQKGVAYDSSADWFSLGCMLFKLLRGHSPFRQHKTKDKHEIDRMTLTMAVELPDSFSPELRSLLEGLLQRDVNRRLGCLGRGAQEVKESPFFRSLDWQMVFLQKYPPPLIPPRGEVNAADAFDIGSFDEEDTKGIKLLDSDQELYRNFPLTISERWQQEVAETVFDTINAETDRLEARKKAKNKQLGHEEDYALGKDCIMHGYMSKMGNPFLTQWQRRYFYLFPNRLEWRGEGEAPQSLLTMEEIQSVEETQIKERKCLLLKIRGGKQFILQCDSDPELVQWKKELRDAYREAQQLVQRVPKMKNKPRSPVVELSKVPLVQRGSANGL

[5] = target: T3, 3-phosphoinositide-dependent protein kinase 1 (Homo sapiens, UniProt O15530); assay: Inhibition of full-length recombinant human His-tagged PDK1 expressed in baculovirus expression system by Z'-LYTE assay
T3 sequence (O15530 whole entry): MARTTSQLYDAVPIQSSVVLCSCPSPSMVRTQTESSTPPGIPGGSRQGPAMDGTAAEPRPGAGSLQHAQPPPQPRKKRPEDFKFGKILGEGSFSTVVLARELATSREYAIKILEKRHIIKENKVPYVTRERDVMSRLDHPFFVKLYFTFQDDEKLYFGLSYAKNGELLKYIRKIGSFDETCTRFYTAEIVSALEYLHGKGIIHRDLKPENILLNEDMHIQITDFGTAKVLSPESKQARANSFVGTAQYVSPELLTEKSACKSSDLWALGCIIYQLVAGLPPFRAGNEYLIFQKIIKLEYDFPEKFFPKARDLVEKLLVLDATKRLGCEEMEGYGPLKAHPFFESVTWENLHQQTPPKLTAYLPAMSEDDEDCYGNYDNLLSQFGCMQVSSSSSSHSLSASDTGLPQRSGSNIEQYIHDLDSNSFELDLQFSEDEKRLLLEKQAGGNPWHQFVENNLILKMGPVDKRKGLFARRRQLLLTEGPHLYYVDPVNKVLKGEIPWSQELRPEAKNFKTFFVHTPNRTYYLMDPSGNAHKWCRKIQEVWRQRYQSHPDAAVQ

[6] = target: Vascular endothelial growth factor receptor 2 (Homo sapiens, UniProt P35968); assay: Inhibition of recombinant human His-tagged cytoplasmic KDR expressed in baculovirus expression system by Z'-LYTE assay
Chain of Vascular endothelial growth factor receptor 2 (P35968 whole entry): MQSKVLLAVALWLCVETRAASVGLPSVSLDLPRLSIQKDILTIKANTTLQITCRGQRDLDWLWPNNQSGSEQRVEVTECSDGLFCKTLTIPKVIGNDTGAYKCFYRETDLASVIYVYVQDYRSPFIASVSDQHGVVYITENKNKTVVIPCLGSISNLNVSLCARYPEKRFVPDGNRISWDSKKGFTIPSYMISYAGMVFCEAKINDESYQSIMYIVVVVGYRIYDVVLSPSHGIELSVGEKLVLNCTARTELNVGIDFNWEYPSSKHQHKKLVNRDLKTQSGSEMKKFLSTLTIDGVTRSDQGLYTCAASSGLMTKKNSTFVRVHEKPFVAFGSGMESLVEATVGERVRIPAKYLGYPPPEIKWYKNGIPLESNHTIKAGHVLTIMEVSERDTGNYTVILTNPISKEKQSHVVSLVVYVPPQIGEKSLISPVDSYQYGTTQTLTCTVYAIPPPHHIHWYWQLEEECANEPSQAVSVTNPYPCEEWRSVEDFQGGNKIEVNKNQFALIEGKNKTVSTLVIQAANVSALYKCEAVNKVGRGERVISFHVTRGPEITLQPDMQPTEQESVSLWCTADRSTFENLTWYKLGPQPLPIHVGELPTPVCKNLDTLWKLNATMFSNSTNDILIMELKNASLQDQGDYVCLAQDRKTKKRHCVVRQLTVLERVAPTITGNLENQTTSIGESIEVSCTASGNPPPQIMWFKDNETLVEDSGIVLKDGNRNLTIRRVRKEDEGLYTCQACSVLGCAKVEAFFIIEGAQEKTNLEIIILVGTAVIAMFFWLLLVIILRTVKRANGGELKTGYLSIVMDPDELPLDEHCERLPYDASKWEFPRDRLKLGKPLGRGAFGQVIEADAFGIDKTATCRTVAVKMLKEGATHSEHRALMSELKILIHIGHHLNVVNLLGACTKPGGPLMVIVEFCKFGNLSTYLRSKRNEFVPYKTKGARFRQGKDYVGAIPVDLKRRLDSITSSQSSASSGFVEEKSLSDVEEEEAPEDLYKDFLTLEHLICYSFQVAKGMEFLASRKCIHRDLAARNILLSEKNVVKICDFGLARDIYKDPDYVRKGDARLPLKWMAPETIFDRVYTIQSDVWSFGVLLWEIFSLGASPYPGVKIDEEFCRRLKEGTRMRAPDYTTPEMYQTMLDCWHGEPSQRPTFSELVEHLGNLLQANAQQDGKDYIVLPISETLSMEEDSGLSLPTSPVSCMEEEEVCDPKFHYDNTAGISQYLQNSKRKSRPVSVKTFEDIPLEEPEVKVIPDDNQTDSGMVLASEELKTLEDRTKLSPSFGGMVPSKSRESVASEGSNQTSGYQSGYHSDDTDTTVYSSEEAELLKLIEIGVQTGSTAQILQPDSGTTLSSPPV

[7] = target: Serine/threonine-protein kinase N1 (Homo sapiens, UniProt Q16512); assay: Inhibition of full-length recombinant human GST-tagged PKN1 expressed in baculovirus expression system by Z'-LYTE assay
Chain of Serine/threonine-protein kinase N1 (Q16512 whole entry): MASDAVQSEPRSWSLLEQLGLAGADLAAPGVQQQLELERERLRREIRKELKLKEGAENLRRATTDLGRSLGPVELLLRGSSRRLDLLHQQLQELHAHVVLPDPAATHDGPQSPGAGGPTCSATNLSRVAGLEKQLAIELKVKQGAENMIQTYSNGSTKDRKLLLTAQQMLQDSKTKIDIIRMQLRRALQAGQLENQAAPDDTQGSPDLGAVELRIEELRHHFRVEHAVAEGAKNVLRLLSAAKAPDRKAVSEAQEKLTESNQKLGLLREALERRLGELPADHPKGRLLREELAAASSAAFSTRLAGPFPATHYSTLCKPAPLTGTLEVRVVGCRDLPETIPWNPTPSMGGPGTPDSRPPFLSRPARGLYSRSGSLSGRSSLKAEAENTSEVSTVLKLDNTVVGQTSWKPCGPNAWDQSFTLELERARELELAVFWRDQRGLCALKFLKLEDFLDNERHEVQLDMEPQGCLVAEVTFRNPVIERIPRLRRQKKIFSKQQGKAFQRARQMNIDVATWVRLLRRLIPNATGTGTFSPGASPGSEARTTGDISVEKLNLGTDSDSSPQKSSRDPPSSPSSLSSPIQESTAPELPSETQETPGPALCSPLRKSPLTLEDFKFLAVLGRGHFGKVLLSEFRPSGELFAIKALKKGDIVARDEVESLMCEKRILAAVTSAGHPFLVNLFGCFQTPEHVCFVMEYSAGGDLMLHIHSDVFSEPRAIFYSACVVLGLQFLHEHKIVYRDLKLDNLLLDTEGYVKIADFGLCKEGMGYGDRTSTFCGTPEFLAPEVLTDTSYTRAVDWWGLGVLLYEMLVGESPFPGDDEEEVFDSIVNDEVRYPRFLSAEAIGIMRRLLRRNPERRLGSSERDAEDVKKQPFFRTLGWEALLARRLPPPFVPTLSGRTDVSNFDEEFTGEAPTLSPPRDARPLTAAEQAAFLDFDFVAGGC

[8] = target: RAC-beta serine/threonine-protein kinase (Homo sapiens, UniProt P31751); assay: Inhibition of full-length recombinant human His-tagged AKT2 expressed in baculovirus expression system by Z'-LYTE assay
Chain of RAC-beta serine/threonine-protein kinase (P31751 whole entry): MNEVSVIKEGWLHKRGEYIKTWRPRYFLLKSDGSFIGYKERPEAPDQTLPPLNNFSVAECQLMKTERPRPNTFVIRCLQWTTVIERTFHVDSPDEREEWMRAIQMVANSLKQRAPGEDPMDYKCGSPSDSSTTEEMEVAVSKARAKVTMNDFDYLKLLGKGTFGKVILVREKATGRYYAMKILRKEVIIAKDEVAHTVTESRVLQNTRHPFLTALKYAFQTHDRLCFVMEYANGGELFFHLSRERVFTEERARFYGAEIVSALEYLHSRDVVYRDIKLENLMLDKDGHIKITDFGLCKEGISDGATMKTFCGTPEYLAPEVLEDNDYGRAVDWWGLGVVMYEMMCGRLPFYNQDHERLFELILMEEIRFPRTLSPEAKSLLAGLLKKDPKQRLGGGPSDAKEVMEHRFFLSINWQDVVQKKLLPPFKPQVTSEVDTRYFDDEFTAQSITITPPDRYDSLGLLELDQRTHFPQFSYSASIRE

[9] = target: Serine/threonine-protein kinase PLK1 (Homo sapiens, UniProt P53350); assay: Inhibition of full-length recombinant human His-tagged PLK1 expressed in baculovirus expression system by Z'-LYTE assay
Chain of Serine/threonine-protein kinase PLK1 (P53350 whole entry): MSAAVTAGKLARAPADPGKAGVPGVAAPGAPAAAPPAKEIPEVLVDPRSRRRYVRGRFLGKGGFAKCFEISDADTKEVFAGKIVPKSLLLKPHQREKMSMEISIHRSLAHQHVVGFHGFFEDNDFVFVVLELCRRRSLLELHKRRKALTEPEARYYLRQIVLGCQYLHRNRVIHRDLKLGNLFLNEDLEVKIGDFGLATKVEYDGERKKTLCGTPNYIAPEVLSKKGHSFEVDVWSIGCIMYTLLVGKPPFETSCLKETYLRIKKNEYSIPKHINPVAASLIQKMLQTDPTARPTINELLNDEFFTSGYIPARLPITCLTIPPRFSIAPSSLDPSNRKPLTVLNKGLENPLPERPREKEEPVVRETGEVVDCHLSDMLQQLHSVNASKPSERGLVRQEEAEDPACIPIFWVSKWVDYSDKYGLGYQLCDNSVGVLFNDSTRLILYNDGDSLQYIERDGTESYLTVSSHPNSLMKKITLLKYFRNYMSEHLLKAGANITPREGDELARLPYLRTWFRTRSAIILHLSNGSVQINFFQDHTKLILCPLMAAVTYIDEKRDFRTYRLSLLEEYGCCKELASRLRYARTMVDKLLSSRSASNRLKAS

[10] = target: Tyrosine-protein kinase HCK (Homo sapiens, UniProt P08631); assay: Inhibition of full-length human N-terminal GST-tagged HCK expressed in baculovirus expression system by Z'-LYTE assay
Chain of Tyrosine-protein kinase HCK (P08631 whole entry): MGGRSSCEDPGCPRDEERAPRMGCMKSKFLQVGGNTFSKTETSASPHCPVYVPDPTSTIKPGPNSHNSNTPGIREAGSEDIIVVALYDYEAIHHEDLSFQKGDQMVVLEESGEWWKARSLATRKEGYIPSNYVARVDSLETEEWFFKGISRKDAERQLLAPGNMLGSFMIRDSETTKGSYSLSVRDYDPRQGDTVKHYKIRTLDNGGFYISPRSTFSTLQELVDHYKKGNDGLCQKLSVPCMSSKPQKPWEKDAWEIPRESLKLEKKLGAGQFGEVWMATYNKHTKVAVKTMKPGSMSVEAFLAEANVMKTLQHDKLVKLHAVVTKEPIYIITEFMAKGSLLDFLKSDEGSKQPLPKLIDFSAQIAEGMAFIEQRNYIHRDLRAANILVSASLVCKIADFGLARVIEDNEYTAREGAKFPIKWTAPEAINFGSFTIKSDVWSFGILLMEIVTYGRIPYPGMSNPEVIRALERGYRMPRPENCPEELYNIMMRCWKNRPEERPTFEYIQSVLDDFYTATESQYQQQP

Compound	IC50 [1] [nM]	IC50 [2] [nM]	IC50 [3] [nM]	IC50 [4] [nM]	IC50 [5] [nM]	IC50 [6] [nM]	IC50 [7] [nM]	IC50 [8] [nM]	IC50 [9] [nM]	IC50 [10] [nM]
Cn1cc(-c2cnc3c(-c4csc(C(=O)NCC(F)(F)F)c4)cnn3c2)cn1	430	11	780	23000	53	15	18000	> 100000	> 100000	33
Cc1sc(C(=O)N[C@@H]2[C@H](N)CCCC2(F)F)cc1-c1cnn2cc(Cl)cnc12	1300	130	2300	11000	330	11000	17000	2500	> 100000	6400
O=C(NCC(F)(F)F)c1cc(-c2cnn3cc(-c4ccc(OCCN5CCCCC5)cc4)cnc23)cs1	280	< 10	360	610	130	< 10	3900	23000	55000	30
Cn1cc(-c2cnc3c(-c4csc(C(=O)N[C@@H]5CCCC[C@@H]5N)c4)cnn3c2)cn1 (racemic)	33	3.2	17	160	20	3.5	250	430	> 10000	2.8

From ChEMBL document CHEMBL4477252, “Optimization of microtubule affinity regulating kinase (MARK) inhibitors with improved physical properties” (Bioorg Med Chem Lett, 2016)
